Test results reported in article PMC8741894 (2022).

Legend:
[1] = tested on: MN4 (DNA, aptamer) GGCGACAAGGAAAATCCTTCAACGAAGTGGGTCGCC; experiment: ITC competition; settings: 140 mM NaCl, 5 mM KCl; 20 mM TRIS pH 7.4, 1% DMSO, 15 °C; apparent; ART pre-bound 3:1, competitive binding model
[2] = tested on: MN19 (DNA, aptamer) GACAAGGAAAATCCTTCAACGAAGTGGGTC; experiment: UV melting, 260 nm; settings: 137 mM NaCl, 2.7 mM KCl; PBS pH 7.4, 3% acetonitrile; Tm of complex, free MN19 shows no transition
[3] = tested on: OR7 (DNA, aptamer) CAAGGAAAATCCTTCAACGAAGTGGG; experiment: ITC; settings: 140 mM NaCl, 5 mM KCl; 20 mM TRIS pH 7.4, 2.4% DMSO, 15 °C; site 1 of 2
[4] = tested on: SS1 (DNA, junction) GGCGACGAGGAAAATCCTTCGACGAAGTAAGTCGCC; experiment: ITC; settings: 140 mM NaCl, 5 mM KCl; 20 mM TRIS pH 7.4, 2.4% DMSO, 15 °C; site 1 of 2
[5] = tested on: DDD (DNA, duplex) CGCGAATTCGCG/CGCGAATTCGCG; experiment: ITC; settings: 140 mM NaCl, 5 mM KCl; 20 mM TRIS pH 7.4, 2.4% DMSO, 15 °C; site 1 of 2
[6] = tested on: MN19 (DNA, aptamer) GACAAGGAAAATCCTTCAACGAAGTGGGTC; experiment: ITC; settings: 140 mM NaCl, 5 mM KCl; 20 mM TRIS pH 7.4, 2.4% DMSO, 15 °C; site 1 of 2
[7] = tested on: SRE RNA (RNA, hairpin) GGAGGCUCUGGCAGCUUUC; experiment: ITC; settings: 140 mM NaCl, 5 mM KCl; 20 mM TRIS pH 7.4, 2.4% DMSO, 15 °C; 20 µM nucleic acid, 0.312 mM titrant
[8] = tested on: Hybrid DNA/RNA (DNA:RNA, duplex) GACACCUGAUUC/GAATCAGGTGTC; experiment: ITC; settings: 140 mM NaCl, 5 mM KCl; 20 mM TRIS pH 7.4, 2.4% DMSO, 15 °C; 20 µM nucleic acid, 0.312 mM titrant
[9] = tested on: MN19-SITS (DNA, aptamer) GACAAGGAAAATCCTTCAACGAAGTGGGTC; experiment: photochrome aptamer switch assay (fluorescence decay); settings: 140 mM NaCl; 20 mM Tris pH 7.4, 3% DMSO, 20 °C; 0-4.2 µM ART
[10] = tested on: MN4 (DNA, aptamer) GGCGACAAGGAAAATCCTTCAACGAAGTGGGTCGCC; experiment: native mass spectrometry with CID; settings: 300 mM ammonium acetate; pH 6.8; 10 µM aptamer, 100 µM ART; non-covalent
[11] = tested on: MN4 (DNA, aptamer) GGCGACAAGGAAAATCCTTCAACGAAGTGGGTCGCC; experiment: 1H NMR imino titration; settings: sodium phosphate, no added NaCl; 20 mM phosphate pH 7.4, 5 °C; slow exchange, shifts near three-way junction
[12] = tested on: MN4 (DNA, aptamer) GGCGACAAGGAAAATCCTTCAACGAAGTGGGTCGCC; experiment: ITC; settings: 140 mM NaCl, 5 mM KCl, 15 °C
[13] = tested on: Hexamer (DNA, duplex) CGTACG/CGTACG; experiment: ITC; settings: 140 mM NaCl, 5 mM KCl; 20 mM TRIS pH 7.4, 2.4% DMSO, 15 °C; site 1 of 2
[14] = tested on: poly-dT (DNA, single strand) TTTTTTTTTTTT; experiment: ITC; settings: 140 mM NaCl, 5 mM KCl; 20 mM TRIS pH 7.4, 2.4% DMSO, 15 °C; 20 µM nucleic acid, 0.312 mM titrant
[15] = tested on: TWJ (DNA, junction) CGTGCAGCGGCTTGCCGGCACTTGTGCTTCTGCACG; experiment: ITC; settings: 140 mM NaCl, 5 mM KCl; 20 mM TRIS pH 7.4, 2.4% DMSO, 15 °C; site 1 of 2

Row | Kd, app [1] [nM] | Tm [2] [°C] | Kd1 [3] [µM] | Kd1 [4] [µM] | Kd1 [5] [µM] | Kd1 [6] [µM] | binding [7] | binding [8] | binding [9] | binding [10] | binding [11] | Kd1 ([12]; 20 mM TRIS pH 7.4, 2.4% DMSO, site 1 of 2) [µM] | Kd1 [13] [µM] | binding [14] | Kd1 [15] [µM] | binding ([12]; 20 mM TRIS pH 7.4, 1.5% DMSO, 20 µM aptamer, 0.312 mM titrant) | SMILES
1 | 1100 ± 100 | 36.4 ± 1.2 | – | – | – | – | – | – | – | – | – | – | – | – | – | – | C=C[C@H]1CN2CC[C@H]1C[C@H]2[C@H](O)c1ccnc2ccc(OC)cc12
2 | – | 34.8 ± 1.1 | 0.03 ± 0.01 | 0.004 ± 0.002 | 0.10 ± 0.03 | 0.02 ± 0.01 | no | no | yes | yes | yes | 0.03 ± 0.01 | 0.007 ± 0.004 | no | 0.06 ± 0.02 | – | C[C@@H]1CC[C@H]2[C@@H](C)C(=O)O[C@@H]3O[C@@]4(C)CC[C@@H]1[C@]32OO4
3 | – | – | – | – | – | – | – | – | – | – | – | – | – | – | – | no | C[C@@H]1CC[C@H]2[C@@H](C)C(=O)O[C@@H]3O[C@@]4(C)CC[C@@H]1[C@]32O4
